Data published in patent US20260207704A1, “STAPLED PEPTIDES AND METHODS THEREOF” (priority 2022, published 2026).

The compounds below were run on DLD1 reporter (assay: reporter assay (DLD1 reporter assay)). Settings: read-out: DLD1 4% Abs IC50; DLD1 4%.
Type: cell-based
Source text: Various technologies can be utilized for characterizing and/or assessing provided technologies (e.g., agents (e.g., various peptides), compositions, methods, etc.) in accordance with the present disclosure. As described herein, in some embodiments, a useful technology is or comprises fluorescence polarization. In some embodiments, a useful technology assesses LogP or LogD. In some embodiments, a useful technology is or comprises a CHI LogD assay. In some embodiments, a useful technology assesses solubility. In some embodiments, a useful technology is or comprises NanoBRET. In some embodiments, a useful technology is or comprises a reporter assay (e.g., DLD1 reporter assay). In some embodiments, a useful technology is or comprises alphascreen. Certain useful protocols are described in the Examples. Those skilled in the art appreciate that suitable adjustments may be made to such protocols, e.g., according to specific conditions, agents, purposes, etc.
Various technologies can be utilized to assess technologies of the present disclosure. For example, in some embodiments, solubility, LogD, interactions with targets, etc. of various agents such as stapled peptides were assessed using technologies described in WO 2022/261257 (e.g., those in its Examples). In some embodiments, solubility, shake flask LogD, and binding to beta-catenin were assessed. In some embodiments, an assay for assessing interactions, e.g., with beta-catenin, was fluorescence polarization as described in WO 2022/261257. In some embodiments, an assay was Nano-BRET target engagement assay that assessed beta-catenin/TCF4 engagement as described in WO 2022/261257. In some embodiments, an assay was a reporter assay as reported in Example 4 of WO 2022/261257. In some embodiments, an assay was a COLO320DM proliferation assay as reported in Example 4 of WO 2022/261257.

First: CC(=O)N1CCC[C@]12CC=CCCCC1(CCCC=CCCCOC(=O)N3CC[C@@]4(C3)NC(=O)[C@H](CCCCNC(=O)CC[C@@H](C(=O)N[C@@H](C)C(N)=O)NC(=O)[C@H](Cc3csc5ccccc35)NC(=O)[C@H](Cc3ccsc3)NC4=O)NC(=O)[C@H](Cc3ccccc3)NC(=O)[C@H](C)NC(=O)C(C)(C)NC(=O)[C@H](Cc3cccc(C(=O)O)c3)NC(=O)[C@H](CC(=O)O)NC1=O)NC(=O)[C@H](CC(C)(C)C)NC(=O)[C@H]([C@H](C)O)NC2=O (relative stereo) [I-163, Ac-PL3-aThr-Npg-B5-Asp-3COOHF-Aib-Ala-Phe-Lys*3-PyrS2-3Thi-BztA-GlnR*3-Ala-NH2]
Second: CC(=O)N1CCC[C@]12CC=CCCCC1(CCCC=CCCCOC(=O)N3CC[C@@]4(C3)NC(=O)[C@H](CCCCNC(=O)CC[C@@H](C(=O)N[C@@H](C)C(N)=O)NC(=O)[C@H](Cc3csc5ccccc35)NC(=O)[C@H](Cc3ccccc3C(F)(F)F)NC4=O)NC(=O)[C@H](Cc3ccccc3)NC(=O)[C@H](C)NC(=O)C(C)(C)NC(=O)[C@H](Cc3cccc(C(=O)O)c3)NC(=O)[C@H](CCC(=O)O)NC1=O)NC(=O)[C@H](CC(C)(C)C)NC(=O)[C@H](CCC(=O)O)NC2=O (relative stereo) [I-291, Ac-PL3-Glu-Npg-B5-Glu-3COOHF-Aib-Ala-Phe-Lys*3-PyrS2-2F3MeF-BztA-GlnR*3-Ala-NH2]
The IC50 of the first is higher: > 5000 nM for the first, 1000 to 5000 nM for the second.

CC(=O)N1CCC[C@]12CC=CCCCC1(CCCC=CCCCOC(=O)N3CC[C@@]4(C3)NC(=O)[C@H](CCCCNC(=O)CC[C@@H](C(=O)N[C@H](C(N)=O)C(C)C)NC(=O)[C@H](Cc3csc5ccccc35)NC(=O)[C@H](Cc3ccccc3C(F)(F)F)NC4=O)NC(=O)[C@H](Cc3ccccc3)NC(=O)[C@H](C)NC(=O)[C@H](C)NC(=O)[C@H](CN(CC(=O)O)CC(F)(F)F)NC(=O)[C@H](CC(=O)O)NC1=O)NC(=O)[C@H](CC(C)(C)C)NC(=O)[C@H](CC(=O)O)NC2=O (relative stereo) [I-129, Ac-PL3-Asp-Npg-B5-Asp-TfeGA-Ala-Ala-Phe-Lys*3-PyrS2-2F3MeF-BztA-GlnR*3-Val-NH2] and CC(=O)N1CCC[C@]12CC=CCCCC1(CCCC=CCCCOC(=O)N3CC[C@@]4(C3)NC(=O)[C@H](CCCCNC(=O)CC[C@@H](C(=O)N[C@@H](C)C(N)=O)NC(=O)[C@H](Cc3csc5ccccc35)NC(=O)[C@H](Cc3ccccc3C(F)(F)F)NC4=O)NC(=O)[C@H](Cc3ccccc3)NC(=O)[C@H](C)NC(=O)[C@H](C(C)C)NC(=O)[C@H](CN(CC(=O)O)CC(F)(F)F)NC(=O)[C@H](CC(=O)O)NC1=O)NC(=O)[C@H](CC(C)(C)C)NC(=O)[C@H](CC(=O)O)NC2=O (single isomer, unassigned) [I-125, Ac-PL3-Asp-Npg-B5-Asp-TfeGA-Val-Ala-Phe-Lys*3-PyrS2-2F3MeF-BztA-GlnR*3-Ala-NH2] fall in the same range of IC50: 1000 to 5000 nM for the first, 1000 to 5000 nM for the second.

CC(=O)N1CCC[C@]12CC=CCCCC1(CCCC=CCCCOC(=O)N3CC[C@@]4(C3)NC(=O)[C@H](CCCCNC(=O)CC[C@@H](C(=O)N[C@@H](C)C(N)=O)NC(=O)[C@H](Cc3csc5ccccc35)NC(=O)[C@H](Cc3ccccc3C(F)(F)F)NC4=O)NC(=O)[C@H](Cc3ccccc3)NC(=O)[C@H](C)NC(=O)[C@H](CC(C)(C)C)NC(=O)[C@H](Cc3cccc(C(=O)O)c3)NC(=O)[C@H](CC(=O)O)NC1=O)NC(=O)[C@H](CC(C)(C)C)NC(=O)[C@H](CC(=O)O)NC2=O (single isomer, unassigned) [I-99, Ac-PL3-Asp-Npg-B5-Asp-3COOHF-Npg-Ala-Phe-Lys*3-PyrS2-2F3MeF-BztA-GlnR*3-Ala-NH2] and CC(=O)N1CCC[C@]12CC=CCCCC1(CCCC=CCCCOC(=O)N3CC[C@@]4(C3)NC(=O)[C@H](CCCCNC(=O)CC[C@@H](C(=O)N[C@@H](CC(C)C)C(N)=O)NC(=O)[C@H](Cc3csc5ccccc35)NC(=O)[C@H](Cc3ccccc3C(F)(F)F)NC4=O)NC(=O)[C@H](Cc3ccccc3)NC(=O)[C@H](C)NC(=O)[C@H](C)NC(=O)[C@H](Cc3cccc(C(=O)O)c3)NC(=O)[C@H](CC(=O)O)NC1=O)NC(=O)[C@H](CC1CCCCC1)NC(=O)[C@H](CC(=O)O)NC2=O (single isomer, unassigned) [I-106, Ac-PL3-Asp-Cha-B5-Asp-3COOHF-Ala-Ala-Phe-Lys*3-PyrS2-2F3MeF-BztA-GlnR*3-Leu-NH2] cannot be ordered by IC50: ≤ 1000 nM for the first, ≤ 1000 nM for the second.

CC(=O)N1CCC[C@]12CC=CCCCC1(CCCC=CCCCOC(=O)N3CC[C@@]4(C3)NC(=O)[C@H](CCCCNC(=O)CC[C@@H](C(=O)N[C@@H](C)C(N)=O)NC(=O)[C@H](Cc3csc5ccccc35)NC(=O)[C@H](Cc3ccccc3C(F)(F)F)NC4=O)NC(=O)[C@H](Cc3ccccc3)NC(=O)[C@H](C)NC(=O)C(C)(C)NC(=O)[C@H](CN(CC(=O)O)CC(F)(F)F)NC(=O)[C@H](CC(=O)O)NC1=O)NC(=O)[C@H](CC(C)(C)C)NC(=O)[C@H](CC(=O)O)NC2=O (single isomer, unassigned) [I-121, Ac-PL3-Asp-Npg-B5-Asp-TfeGA-Aib-Ala-Phe-Lys*3-PyrS2-2F3MeF-BztA-GlnR*3-Ala-NH2] and CC(=O)N1CCC[C@]12CC=CCCCC1(CCCC=CCCCOC(=O)N3CC[C@@]4(C3)NC(=O)[C@H](CCCCNC(=O)CC[C@@H](C(=O)N[C@@H](CC(C)C)C(=O)N[C@@H](CO)C(N)=O)NC(=O)[C@H](Cc3csc5ccccc35)NC(=O)[C@H](Cc3ccccc3C(F)(F)F)NC4=O)NC(=O)[C@H](Cc3ccccc3)NC(=O)[C@H](C)NC(=O)C(C)(C)NC(=O)[C@H](Cc3cccc(C(=O)O)c3)NC(=O)[C@H](CC(=O)O)NC1=O)NC(=O)[C@H](CC(C)(C)C)NC(=O)[C@H](CC(N)=O)NC2=O (relative stereo) [I-144, Ac-PL3-Asn-Npg-B5-Asp-3COOHF-Aib-Ala-Phe-Lys*3-PyrS2-2F3MeF-BztA-GlnR*3-Leu-Ser-NH2] fall in the same range of IC50: 1000 to 5000 nM for the first, 1000 to 5000 nM for the second.

CC(=O)N1CCC[C@]12CC=CCCCC1(CCCC=CCCCOC(=O)N3CC[C@@]4(C3)NC(=O)[C@H](Cc3cn(nn3)CCCC[C@@H](C(N)=O)NC(=O)[C@H](Cc3csc5ccccc35)NC(=O)[C@H](Cc3ccsc3)NC4=O)NC(=O)[C@H](Cc3ccccc3)NC(=O)[C@H](C)NC(=O)[C@H](C)NC(=O)[C@H](Cc3cccc(C(=O)O)c3)NC(=O)[C@H](CC(=O)O)NC1=O)NC(=O)[C@H](CC(C)(C)C)NC(=O)[C@H](CC(=O)O)NC2=O (stereo partly drawn) [I-24, Ac-PL3-Asp-Npg-B5-Asp-3COOHF-Ala-Ala-Phe-sAla*3-PyrS2-3Thi-BztA-TriAzLys*3-NH2] and CC(=O)N1CCC[C@]12CC=CCCCC1(CCCC=CCCCOC(=O)N3CC[C@@]4(C3)NC(=O)[C@H](CCCCNC(=O)CC[C@@H](C(=O)N[C@@H](CC(C)C)C(=O)N[C@@H](CO)C(N)=O)NC(=O)[C@H](Cc3csc5ccccc35)NC(=O)[C@H](Cc3ccccc3C(F)(F)F)NC4=O)NC(=O)[C@H](Cc3ccccc3)NC(=O)[C@H](C)NC(=O)C3(CCCC3)NC(=O)[C@H](Cc3cccc(C(=O)O)c3)NC(=O)[C@H](CC(=O)O)NC1=O)NC(=O)[C@H](CC(C)(C)C)NC(=O)[C@H](CC(=O)O)NC2=O (relative stereo) [I-141, Ac-PL3-Asp-Npg-B5-Asp-3COOHF-CyLeu-Ala-Phe-Lys*3-PyrS2-2F3MeF-BztA-GlnR*3-Leu-Ser-NH2] cannot be ordered by IC50: 1000 to 5000 nM for the first, ≤ 1000 nM for the second.

Same assay, conditions: read-out: DLD1 4% Abs IC50; DLD1 reporter, 4%

CC(=O)N1CCC[C@]12CC=CCCCC1(CCCC=CCCCOC(=O)N3CC[C@@]4(C3)NC(=O)[C@H](Cc3cn(nn3)CCCC[C@@H](C(=O)N[C@@H](C)C(N)=O)NC(=O)[C@H](Cc3csc5ccccc35)NC(=O)[C@H](Cc3ccsc3)NC4=O)NC(=O)[C@H](Cc3ccccc3)NC(=O)[C@H](C)NC(=O)[C@H](C)NC(=O)[C@H](Cc3cccc(C(=O)O)c3)NC(=O)[C@H](CC(=O)O)NC1=O)NC(=O)[C@H](CC(C)(C)C)NC(=O)[C@H](CC(=O)O)NC2=O (stereo partly drawn) [I-338, Ac-PL3-Asp-Npg-B5-Asp-3COOHF-Ala-Ala-Phe-sAla*3-PyrS2-3Thi-BztA-TriAzLys*3-Ala-NH2] and CC(=O)N1CCC[C@]12CC=CCCCC1(CCCC=CCCCOC(=O)N3CC[C@@]4(C3)NC(=O)[C@H](Cc3cn(nn3)CCCC[C@@H](C(=O)N[C@@H](C)C(N)=O)NC(=O)[C@H](Cc3csc5ccccc35)NC(=O)[C@H](Cc3ccsc3)NC4=O)NC(=O)[C@H](Cc3ccccc3)NC(=O)[C@H](C)NC(=O)C(C)(C)NC(=O)[C@H](Cc3cccc(C(=O)O)c3)NC(=O)[C@H](CC(=O)O)NC1=O)NC(=O)[C@H](CC(C)(C)C)NC(=O)[C@H](CC(=O)O)NC2=O (stereo partly drawn) [I-336, Ac-PL3-Asp-Npg-B5-Asp-3COOHF-Aib-Ala-Phe-sAla*3-PyrS2-3Thi-BztA-TriAzLys*3-Ala-NH2] cannot be ordered by IC50: ≤ 1000 nM for the first, 1000 to 5000 nM for the second.

With CC(=O)N1CCC[C@]12CC=CCCCC1(CCCC=CCCCOC(=O)N3CC[C@@]4(C3)NC(=O)[C@H](CCCCNC(=O)CC[C@@H](C(=O)N[C@@H](CCC(=O)O)C(=O)N[C@@H](C)C(N)=O)NC(=O)[C@H](Cc3csc5ccccc35)NC(=O)[C@H](Cc3ccsc3)NC4=O)NC(=O)[C@H](Cc3ccccc3)NC(=O)[C@H](C)NC(=O)C(C)(C)NC(=O)[C@H](Cc3cccc(C(=O)O)c3)NC(=O)[C@H](CC(=O)O)NC1=O)NC(=O)[C@H](CC(C)(C)C)NC(=O)[C@H](CC(=O)O)NC2=O (relative stereo) [I-342, Ac-PL3-Asp-Npg-B5-Asp-3COOHF-Aib-Ala-Phe-Lys*3-PyrS2-3Thi-BztA-GlnR*3-Glu-Ala-NH2] the IC50 was ≤ 1000 nM.
